Key:
[1] = system: sarcoma (MC-WST-724), and mammary carcinoma (MCF-7); experiment: TRAIL co-treatment apoptosis in other tumor cell types; type: cell-based; settings: co-treatment with verticillin A and TRAIL
Method: (§1) Cells were seeded in wells of 96-well plates for 2 days and then treated with different concentrations of mushroom extract fractions or purified verticillin A for 2 days. The cells were stained with propidium iodide (PI) (Trevigen, Gaithersburg, Md.) or PI plus annexin V-Alex Fluor 647 (Biolegend, San Diego, Calif.) and analyzed by flow cytometry.
(§2) The sensitization effects of verticillin A was examined in other types of tumor cells.

SW620 tumor xenograft = SW620 tumor xenograft growth in athymic mice; type: in vivo
Method: Athymic mice were subcutaneously inoculated with human hepatoma HepG2 and colon carcinoma SW620 cells, respectively. The tumor-bearing mice were randomized into experimental groups. The control mice were given saline. The treatment group was intravenously injected with verticillin A at the doses of 1 and 2 mg/kg body weight. Tumor size was measured in 2 diameter with micrometer caliper at the indicate times to permit calculation of tumor volume, V=(a×b^2)/2, where “a” is the length and “b” is the width in millimeters. At the end of the experiment, all the animals were sacrificed, The tumor inhibitory rates were calculated using the following formula: [(mean tumor volume of control nude mice−mean tumor volume of treated nude mice)/mean tumor volume of control nude mice]×100%.
The disclosed observations indicate that verticillin A can dramatically increase TRAIL-induced tumor cell apoptosis. To determine whether these in vitro observations can be extended to enhance TRAIL-mediated tumor suppression in vivo, SW620 cells were injected subcutaneously to athymic mice, verticillin A and TRAIL, either used as single agent or in combination, were then injected to the tumor-bearing mice. Tumor growth rate were measured in different time points. Verticillin A can inhibit tumor cell growth in vitro at high dose and sensitize tumor cells to TRAIL-induced apoptosis at a low dose. […] As expected, SW620 tumors are resistant to TRAIL (Voelkel-Johnson C, et al. Mol Cancer Ther 2005 4(9):1320-7).

Bcap-37 = experiment: MTT growth inhibition, Bcap-37; type: cell-based; settings: Homo sapiens, Bcap37, Mammary Carcinoma, MTT assay
Method: (§3) For cell viability assay, cells were seeded in wells of 96-well plates for 2 days and then treated with different concentrations of mushroom extract fractions or purified verticillin A for 2 days. The cells were then incubated with MTT (3-(4,5-dimethylthiazol-2-yl)-2,5-diphenyltetrazolium bromide) using the MTT assay kit (ATCC, Manassas, Va.) according to the manufacturer's instructions.
(§4) To determine whether verticillin A inhibits other types of tumor cell growth, Mammary carcinoma (Bcap-37 and MCF-7), heptocarcinoma (HepG2), cervical (HeLa), liver (SMMC-7721), lung (SPC-A1) cancer cells and T cell leukemia (Jurkat) were cultured in the presence of different concentrations of verticillin A and examined for the efforts of verticillin A on the growth rate of these tumor cells in vitro.

SPC-A1 = experiment: MTT growth inhibition, SPC-A1; type: cell-based; settings: SPCA1, Lung Carcinoma, MTT assay
Method: as §3, §4

SW620 cells [2] = experiment: SW620 growth with anticancer drugs, MTT assay; type: cell-based, human; settings: Verticillin A pretreatment, then Etoposide, Cisplatin, 5-FU or Doxorubicin
Method: as §3
Etoposie, Cisplatin, 5-FU and Doxorubicin are commonly used cancer drugs that suppress tumor cell growth through their cytotoxicity. High cytotoxicity is often associated with high dose of their drugs. Furthermore, tumor cells often develop resistance to these cytotoxic drugs. To determine whether Verticillin A can increase the efficacy of these drugs and overcome drug resistance, the effectiveness of Verticillin A combined with these 4 drugs in suppression of tumor cell growth was tested in vitro. SW620 cell sensitivity to these drugs was first measured. SW620 cells are resistant to Etoposide but sensitive to 5-FU. […] SW620 cells were next pretreated with Verticillin A, followed by treatment with Etoposide (1 μg/ml), Cisplatin (1 μg/ml), 5-FU ([…]) and Doxorubicin (0.01 μg/ml), respectively.

[3] = system: BNIP3, IRF8, Neurog1, p15ink4b, RUNX3; experiment: Expression of genes with methylated promoters; type: cell-based, human; settings: SW620, verticillin A 0-50 nM
Method: To determine whether verticillin A inhibits DNA methylation in other gene promoters, 4 other genes (IRF8, Neurog1, p15ink4b, RUNX3) with known promoter DNA methylation in human colon carcinoma cells were selected. SW620 cells were treated with AzadC (0-1.0 μM) and verticillin A (0-50 nM), respectively, and analyzed for the expression of BNIP3 and these 4 genes.

Hela = experiment: MTT growth inhibition, Hela; type: cell-based; settings: Homo sapiens, Cervical Cancer, MTT assay
Method: as §3, §4

HepG2 cells = experiment: MTT growth inhibition, HepG2; type: cell-based, human
Method: as §3
The growth inhibitory effort of the purified verticillin A was examined on HepG2 cells. Tumor cells were cultured in the presence of different concentrations of verticillin A and analyzed for the growth by MTT assay 24 and 72 h later, respectively. […] To determine whether the growth inhibitory effect is due to increased tumor cell death, genomic DNA was isolated from the treated tumor cells and analyzed by agarose gel electrophoresis.
as §4

SMMC-7721 = experiment: MTT growth inhibition, SMMC-7721; type: cell-based; settings: Homo sapiens, Hepatoma, MTT assay
Method: as §3, §4

[4] = system: 6 other human colon carcinoma cells; experiment: TRAIL sensitization in other colon carcinoma cells; type: cell-based; settings: verticillin A and TRAIL
Method: as §1, §2

SW620 cells [5] = experiment: Apoptosis and TRAIL sensitization of SW620 cells (PI/annexin V flow cytometry); type: cell-based, human
Method: as §1
SW620 is a metastatic human colon carcinoma cell line that is resistant to TRAIL-induced apoptosis (Voelkel-Johnson C, et al. Mol Cancer Ther 2005 4(9):1320-7).

CN1C(=O)[C@]23SS[C@]1(C)C(=O)N2C1Nc2ccccc2[C@@]1(C12c4ccccc4NC1N1C(=O)[C@@]4(C)SS[C@]1(C(=O)N4C)[C@H]2O)[C@@H]3O (stereo partly drawn) [Verticillin A]
apoptosis rate versus single agent alone [1]: significantly increased the apoptosis rate | tumor suppression activity, verticillin A alone (SW620 tumor xenograft; 0.125 mg/kg body weight): did not exhibit significant tumor suppression activity | tumor xenograft growth, combination treatment (SW620 tumor xenograft; low dose verticillin A (0.125 mg/kg) and TRAIL): significantly inhibited the tumor xenograft growth | lowest dose enhancing the efficacy of TRAIL in suppressing human cancer growth (SW620 tumor xenograft; nude mice): 0.125 mg/kg | IC50 (Bcap-37): 119 nM | IC50 (SPC-A1): 30 nM | tumor growth inhibitory effect of the drugs combined with Verticillin A (SW620 cells [2]): significantly increased the tumor growth inhibitory effects | expression levels of BNIP3, IRF8, Neurog1, p15ink4b, RUNX3 [3]: dramatically increased the expression levels of BNIP3 and these 4 genes | IC50 (Hela): 122 nM | concentration at which the inhibitory effect reached plateau (HepG2 cells; HepG2, MTT assay 24 and 72 h): 100 to 150 nM | lowest concentration exhibiting growth inhibitory effect (HepG2 cells; HepG2, MTT assay 24 and 72 h): 10 nM | IC50 (HepG2 cells; Homo sapiens, Hepatoma, HepG2, MTT assay): 62 nM | inhibitory activity against HepG2 cells (HepG2 cells; purified compound, cytotoxicity screen): potent inhibitory activity | IC50 (SMMC-7721): 80 nM | sensitization to TRAIL-induced apoptosis [4]: sensitization effect of verticillin A was also observed | sensitization to TRAIL-induced apoptosis (SW620 cells [5]; SW620, 10 nM verticillin A in combination with TRAIL): dramatically sensitized SW620 cells to TRAIL-induced apoptosis | apoptosis induction, single agent (SW620 cells [5]; SW620, agent alone): induced significant apoptosis | concentration that overcomes TRAIL resistance (SW620 cells [5]; human cancer cells): 10 nM

Reference: patent publication US20120219568A1, “EPIDITHIODIOXO[…] USES THEREOF IN TREATING CANCER” (priority 2011, published 2012)
